Laboratory results: PMC5805504 (Oncotarget, 2017)

Tests used:
[1] = design: method as in PMID 21859884; conditions: rats; cited from earlier work
U87MG xenograft tumors = test: U87MG glioblastoma xenograft tumor model; conditions: galunisertib 25 mg/kg BID oral; lomustine (CCNU) 30 mg/kg single intraperitoneal dose; alone or combined
Method: Five million U87MG glioblastoma cells, obtained from ATCC (Manassas, VA), were injected subcutaneously in the flank of 8- to 9-week old, female, athymic nude mice (Harlan, Indianapolis, IN) in a 1:1 mixture of 1x PBS and matrigel (Becton Dickinson, Bedford, MA). Mice were monitored daily for palpable tumors. […] The tumor volumes were recorded at regular intervals following treatment.

Compound	cardiac valve lesions [1]	anti-tumor effect (tumor volume) (U87MG xenograft tumors)
c1ccc(-c2nc3c(c(-n4ccc5cnccc54)n2)CCC3)nc1 [AZ12601011]	induced cardiac valve lesions	
O=NN(CCCl)C(=O)NC1CCCCC1 [lomustine, reference compound]		antitumor activity
